Results reported in the Kinase Knowledgebase extract (Sharma et al. 2016).

Tests used:
Test in all cases: Enzyme Assay
PIK3CG (human) = PIK3CG (human) (UniProt P48736)
PIK3CB (Human) = PIK3CB (Human) (UniProt P42338)
PIK3CD (Human) = PIK3CD (Human) (UniProt O00329)
Chain of PIK3CD (Human) (O00329 whole entry, looked up): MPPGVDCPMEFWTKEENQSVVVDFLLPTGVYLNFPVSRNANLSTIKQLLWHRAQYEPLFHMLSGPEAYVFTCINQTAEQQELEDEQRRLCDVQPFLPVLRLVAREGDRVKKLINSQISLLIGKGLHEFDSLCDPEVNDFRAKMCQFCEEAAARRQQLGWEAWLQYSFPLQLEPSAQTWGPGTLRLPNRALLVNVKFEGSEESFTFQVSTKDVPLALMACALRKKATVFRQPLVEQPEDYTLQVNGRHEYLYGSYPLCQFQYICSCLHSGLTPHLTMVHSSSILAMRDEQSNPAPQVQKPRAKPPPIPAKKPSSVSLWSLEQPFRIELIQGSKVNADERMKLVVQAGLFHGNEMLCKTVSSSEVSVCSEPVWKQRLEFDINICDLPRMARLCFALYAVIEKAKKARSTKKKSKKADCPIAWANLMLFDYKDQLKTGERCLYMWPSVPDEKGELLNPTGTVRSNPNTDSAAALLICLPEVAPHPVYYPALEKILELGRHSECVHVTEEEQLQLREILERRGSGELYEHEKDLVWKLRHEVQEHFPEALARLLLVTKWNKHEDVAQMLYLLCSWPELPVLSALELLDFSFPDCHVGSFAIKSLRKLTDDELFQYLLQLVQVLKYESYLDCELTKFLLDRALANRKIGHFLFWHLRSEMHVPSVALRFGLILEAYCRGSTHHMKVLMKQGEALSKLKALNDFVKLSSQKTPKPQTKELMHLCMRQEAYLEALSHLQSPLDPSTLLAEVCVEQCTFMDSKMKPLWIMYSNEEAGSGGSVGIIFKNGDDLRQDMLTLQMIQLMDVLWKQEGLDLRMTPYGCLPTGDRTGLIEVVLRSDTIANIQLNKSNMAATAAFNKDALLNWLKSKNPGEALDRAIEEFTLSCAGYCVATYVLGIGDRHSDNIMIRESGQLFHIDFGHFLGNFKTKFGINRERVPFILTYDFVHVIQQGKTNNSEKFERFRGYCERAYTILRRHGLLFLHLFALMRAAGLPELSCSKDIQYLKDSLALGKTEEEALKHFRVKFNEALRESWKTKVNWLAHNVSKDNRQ

Chain of PIK3CB (Human) (P42338 whole entry, looked up): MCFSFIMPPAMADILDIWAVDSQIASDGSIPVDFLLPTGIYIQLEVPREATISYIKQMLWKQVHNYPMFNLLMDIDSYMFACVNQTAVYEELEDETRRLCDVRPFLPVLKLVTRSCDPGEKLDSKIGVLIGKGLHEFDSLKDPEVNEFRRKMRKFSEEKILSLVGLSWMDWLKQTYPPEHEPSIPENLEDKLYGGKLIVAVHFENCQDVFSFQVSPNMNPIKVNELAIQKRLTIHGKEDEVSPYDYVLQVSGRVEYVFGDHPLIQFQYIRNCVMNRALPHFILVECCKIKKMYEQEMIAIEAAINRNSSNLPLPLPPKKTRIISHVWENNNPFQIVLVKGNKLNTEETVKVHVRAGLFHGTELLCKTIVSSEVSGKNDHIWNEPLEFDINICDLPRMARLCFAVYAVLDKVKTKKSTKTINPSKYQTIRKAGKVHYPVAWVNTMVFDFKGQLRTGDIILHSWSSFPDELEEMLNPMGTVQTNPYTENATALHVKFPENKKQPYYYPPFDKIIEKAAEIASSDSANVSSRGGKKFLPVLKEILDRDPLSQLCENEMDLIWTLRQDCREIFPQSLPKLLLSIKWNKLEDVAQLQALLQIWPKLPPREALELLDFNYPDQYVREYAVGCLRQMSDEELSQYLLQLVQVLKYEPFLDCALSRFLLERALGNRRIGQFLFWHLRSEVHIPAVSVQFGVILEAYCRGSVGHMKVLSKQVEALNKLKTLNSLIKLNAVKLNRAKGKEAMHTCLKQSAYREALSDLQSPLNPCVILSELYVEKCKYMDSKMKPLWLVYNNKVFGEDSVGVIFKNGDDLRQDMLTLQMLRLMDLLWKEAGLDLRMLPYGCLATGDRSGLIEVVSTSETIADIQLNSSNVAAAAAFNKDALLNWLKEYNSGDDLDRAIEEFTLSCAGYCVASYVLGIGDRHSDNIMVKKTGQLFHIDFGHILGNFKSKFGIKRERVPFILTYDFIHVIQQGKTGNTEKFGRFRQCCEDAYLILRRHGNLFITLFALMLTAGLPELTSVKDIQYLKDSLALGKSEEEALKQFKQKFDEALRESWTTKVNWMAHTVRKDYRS
Chain of PIK3CG (human) (P48736 whole entry, looked up): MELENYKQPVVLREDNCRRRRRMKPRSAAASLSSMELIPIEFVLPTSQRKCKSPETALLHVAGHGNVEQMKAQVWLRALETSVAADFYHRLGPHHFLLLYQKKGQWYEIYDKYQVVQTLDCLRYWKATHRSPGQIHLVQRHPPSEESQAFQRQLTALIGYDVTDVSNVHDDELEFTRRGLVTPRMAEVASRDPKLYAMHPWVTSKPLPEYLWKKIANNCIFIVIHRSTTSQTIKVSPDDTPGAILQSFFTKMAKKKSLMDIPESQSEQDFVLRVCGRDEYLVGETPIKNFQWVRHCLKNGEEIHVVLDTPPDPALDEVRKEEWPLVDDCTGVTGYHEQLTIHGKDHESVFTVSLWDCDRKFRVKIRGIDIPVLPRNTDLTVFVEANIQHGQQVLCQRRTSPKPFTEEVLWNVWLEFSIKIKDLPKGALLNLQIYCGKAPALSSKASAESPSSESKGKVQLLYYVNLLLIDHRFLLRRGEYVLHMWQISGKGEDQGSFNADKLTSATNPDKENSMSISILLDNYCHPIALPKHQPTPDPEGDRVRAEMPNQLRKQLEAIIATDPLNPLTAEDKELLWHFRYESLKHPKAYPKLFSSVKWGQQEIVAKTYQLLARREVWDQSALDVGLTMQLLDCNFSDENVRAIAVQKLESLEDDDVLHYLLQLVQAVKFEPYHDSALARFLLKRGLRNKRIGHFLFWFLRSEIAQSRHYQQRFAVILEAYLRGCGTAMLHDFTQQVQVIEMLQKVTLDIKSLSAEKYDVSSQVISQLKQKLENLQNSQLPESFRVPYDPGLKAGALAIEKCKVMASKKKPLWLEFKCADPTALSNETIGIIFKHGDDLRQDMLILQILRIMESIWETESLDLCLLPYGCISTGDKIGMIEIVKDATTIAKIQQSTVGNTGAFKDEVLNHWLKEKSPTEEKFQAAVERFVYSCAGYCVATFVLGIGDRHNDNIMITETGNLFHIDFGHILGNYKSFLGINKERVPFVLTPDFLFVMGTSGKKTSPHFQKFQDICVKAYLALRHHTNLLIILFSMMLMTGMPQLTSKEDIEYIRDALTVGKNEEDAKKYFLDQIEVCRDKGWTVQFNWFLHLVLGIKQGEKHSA

SMILES	IC50 (PIK3CG (human)) [µM]	IC50 (PIK3CB (Human)) [µM]	IC50 (PIK3CD (Human)) [µM]
CCNC(=O)Nc1ccc(Cl)c(-n2c([C@H](C)Nc3ncnc(N)c3C#N)nc3cccc(Cl)c3c2=O)c1	> 10		
COCCNC(=O)Nc1cccc(-n2c([C@@H]3CCCN3c3ncnc(N)c3C#N)nc3cccc(Cl)c3c2=O)c1	7.8	0.097	0.038
C[C@H](Nc1ncnc(N)c1C#N)c1nc2cccc(Cl)c2c(=O)n1-c1cccc(NC(=O)Nc2cccnc2C(F)(F)F)c1	3.9	0.023	0.011
N#Cc1c(N)nc(N)nc1N1CCC[C@H]1c1nc2c(Cl)ccc(Cl)c2c(=O)n1-c1cccc(C(N)=O)c1	1.4	0.051	0.002
N#Cc1c(N)ncnc1N1CCC[C@H]1c1nc2cccc(Cl)c2c(=O)n1-c1cccc(NC(=O)Nc2ccccn2)c1	7.4	0.42	0.049
